Consider 1 molecule from US11969428B2, “Methods and pharmaceutical compositions for treating lymphoid malignancy” (priority 2011, dated 2024).

One series has as its target T1, ASK1 (Homo sapiens, UniProt Q99683).
T1 construct: purchased Ambit (KinomeScan screening service)
Put plainly: Ambit KinomeScan screening. In kind it is binding. Conditions: CAL-130 10 μM. As for the experimental part: (§1) CAL-130 (10 μM) was evaluated for its ability to prevent tagged kinases from interacting with immobilized “bait” ligand (Karaman et al., 2008). Results are reported as “% of control binding”, where lower numbers indicate stronger interactions with the tagged kinase. Values of >35% are considered “no hits”. PI3Kδ had the lowest percentage of control binding at 0.2% followed by PI3Kγ at 3.2% (See Table 1 below). These values indicate a high probability of a potent interaction. 353 kinases were assessed in the screen (Table 2).

Another series deals with T2, AXL (Homo sapiens, UniProt P30530).
T2 construct: purchased Ambit (KinomeScan screening service)
T2 sequence (P30530 26-894): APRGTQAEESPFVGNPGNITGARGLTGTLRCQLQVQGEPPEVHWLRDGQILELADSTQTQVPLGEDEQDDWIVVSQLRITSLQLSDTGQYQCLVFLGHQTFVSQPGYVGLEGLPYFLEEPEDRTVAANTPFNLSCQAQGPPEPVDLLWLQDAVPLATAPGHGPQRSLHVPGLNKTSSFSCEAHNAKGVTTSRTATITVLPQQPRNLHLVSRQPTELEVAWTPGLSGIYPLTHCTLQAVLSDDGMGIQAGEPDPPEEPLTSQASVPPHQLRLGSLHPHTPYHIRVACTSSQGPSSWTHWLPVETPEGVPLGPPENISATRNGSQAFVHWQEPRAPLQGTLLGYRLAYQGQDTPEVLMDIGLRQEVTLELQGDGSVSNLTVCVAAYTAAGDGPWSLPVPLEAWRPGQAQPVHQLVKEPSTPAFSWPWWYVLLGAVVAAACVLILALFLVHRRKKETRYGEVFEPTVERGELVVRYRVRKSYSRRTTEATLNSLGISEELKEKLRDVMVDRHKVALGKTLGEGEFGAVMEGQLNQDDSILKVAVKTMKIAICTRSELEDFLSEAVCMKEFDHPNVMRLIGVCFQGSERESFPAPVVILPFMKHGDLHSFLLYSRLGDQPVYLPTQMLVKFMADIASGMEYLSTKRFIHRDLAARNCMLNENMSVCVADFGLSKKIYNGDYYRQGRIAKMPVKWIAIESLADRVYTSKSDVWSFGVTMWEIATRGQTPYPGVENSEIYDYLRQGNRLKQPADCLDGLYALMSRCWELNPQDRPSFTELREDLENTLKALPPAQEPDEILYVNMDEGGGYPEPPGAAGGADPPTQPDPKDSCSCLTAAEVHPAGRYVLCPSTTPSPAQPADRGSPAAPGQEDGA
Put plainly: Ambit KinomeScan screening. In kind it is binding. Conditions: CAL-130 10 μM. As for the experimental part:
as §1

The target in another series is T3, FGFR4 (Homo sapiens, UniProt P22455).
T3 construct: unspecified tag; purchased Ambit (KinomeScan screening service)
T3 sequence (P22455 22-802): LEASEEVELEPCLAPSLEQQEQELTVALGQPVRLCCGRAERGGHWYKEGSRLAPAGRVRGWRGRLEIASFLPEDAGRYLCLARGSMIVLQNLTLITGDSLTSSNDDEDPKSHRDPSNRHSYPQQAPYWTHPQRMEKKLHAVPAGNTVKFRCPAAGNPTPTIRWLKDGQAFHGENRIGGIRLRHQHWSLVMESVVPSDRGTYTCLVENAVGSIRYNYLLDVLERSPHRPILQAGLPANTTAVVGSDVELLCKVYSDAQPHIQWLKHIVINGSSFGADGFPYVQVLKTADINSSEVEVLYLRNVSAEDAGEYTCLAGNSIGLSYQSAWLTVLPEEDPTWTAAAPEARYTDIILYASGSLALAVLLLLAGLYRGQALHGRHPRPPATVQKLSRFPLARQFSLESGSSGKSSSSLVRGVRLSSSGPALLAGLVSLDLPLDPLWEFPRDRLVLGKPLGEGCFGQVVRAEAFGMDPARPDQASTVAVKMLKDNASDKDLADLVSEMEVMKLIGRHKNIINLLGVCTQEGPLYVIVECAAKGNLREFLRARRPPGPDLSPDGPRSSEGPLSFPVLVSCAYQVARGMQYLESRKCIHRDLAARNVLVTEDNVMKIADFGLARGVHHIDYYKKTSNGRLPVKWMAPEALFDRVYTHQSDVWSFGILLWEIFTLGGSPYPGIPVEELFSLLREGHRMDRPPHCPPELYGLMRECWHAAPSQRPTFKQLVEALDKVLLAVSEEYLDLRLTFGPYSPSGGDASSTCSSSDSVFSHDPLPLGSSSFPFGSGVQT
Put plainly: Ambit KinomeScan screening. In kind it is binding. Conditions: CAL-130 10 μM. How it is done: as §1

For the next series, the target named is T4, HIPK4 (Homo sapiens, UniProt Q8NE63).
T4 construct: Ambit (KinomeScan screening)
T4 sequence (Q8NE63 whole entry): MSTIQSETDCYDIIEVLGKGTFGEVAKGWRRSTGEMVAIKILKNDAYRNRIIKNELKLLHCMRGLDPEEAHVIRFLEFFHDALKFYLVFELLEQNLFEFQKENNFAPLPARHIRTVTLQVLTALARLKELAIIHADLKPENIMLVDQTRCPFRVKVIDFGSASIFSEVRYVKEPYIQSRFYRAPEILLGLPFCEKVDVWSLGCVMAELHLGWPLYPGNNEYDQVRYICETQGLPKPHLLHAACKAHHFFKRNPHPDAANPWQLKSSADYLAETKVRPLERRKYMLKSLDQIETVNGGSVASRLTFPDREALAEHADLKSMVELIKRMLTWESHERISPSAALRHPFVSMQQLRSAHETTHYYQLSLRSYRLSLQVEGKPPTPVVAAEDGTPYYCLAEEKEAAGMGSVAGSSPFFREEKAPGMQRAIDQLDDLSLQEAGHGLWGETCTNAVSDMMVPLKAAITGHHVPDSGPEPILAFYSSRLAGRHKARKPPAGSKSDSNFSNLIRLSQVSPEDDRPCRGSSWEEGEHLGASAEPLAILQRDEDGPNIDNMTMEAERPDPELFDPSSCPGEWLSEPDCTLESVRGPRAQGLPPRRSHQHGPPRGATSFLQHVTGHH
Put plainly: Ambit KinomeScan screening. In kind it is binding. Conditions: CAL-130 10 μM. How it is done: as §1

Another series deals with T5, PAK4 (Homo sapiens, UniProt O96013).
T5 construct: tag (kind not specified); purchased Ambit (KinomeScan screening service)
T5 sequence (O96013 whole entry): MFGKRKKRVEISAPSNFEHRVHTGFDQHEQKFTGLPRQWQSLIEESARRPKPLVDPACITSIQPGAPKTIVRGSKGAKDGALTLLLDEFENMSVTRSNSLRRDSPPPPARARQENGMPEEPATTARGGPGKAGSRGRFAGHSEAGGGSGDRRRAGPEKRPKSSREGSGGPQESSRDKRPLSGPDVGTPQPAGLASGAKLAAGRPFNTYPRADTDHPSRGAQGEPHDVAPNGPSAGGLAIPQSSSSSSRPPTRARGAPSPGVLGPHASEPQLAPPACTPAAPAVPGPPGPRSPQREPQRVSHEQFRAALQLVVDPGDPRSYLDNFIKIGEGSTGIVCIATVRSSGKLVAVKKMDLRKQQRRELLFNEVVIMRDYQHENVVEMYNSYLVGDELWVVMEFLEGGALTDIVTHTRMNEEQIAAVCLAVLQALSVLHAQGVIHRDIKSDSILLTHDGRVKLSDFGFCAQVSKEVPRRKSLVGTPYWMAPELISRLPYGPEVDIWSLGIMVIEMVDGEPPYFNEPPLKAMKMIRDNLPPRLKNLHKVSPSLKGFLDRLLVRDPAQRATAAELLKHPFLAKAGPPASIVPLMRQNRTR
Put plainly: Ambit KinomeScan screening. The class given is binding. To be noted: CAL-130 10 μM. As for the experimental part: as §1

A further series deals with T6, SBK1 (Homo sapiens, UniProt Q52WX2).
T6 construct: tag, kind not specified; purchased Ambit (KinomeScan screening service)
T6 sequence (Q52WX2 whole entry): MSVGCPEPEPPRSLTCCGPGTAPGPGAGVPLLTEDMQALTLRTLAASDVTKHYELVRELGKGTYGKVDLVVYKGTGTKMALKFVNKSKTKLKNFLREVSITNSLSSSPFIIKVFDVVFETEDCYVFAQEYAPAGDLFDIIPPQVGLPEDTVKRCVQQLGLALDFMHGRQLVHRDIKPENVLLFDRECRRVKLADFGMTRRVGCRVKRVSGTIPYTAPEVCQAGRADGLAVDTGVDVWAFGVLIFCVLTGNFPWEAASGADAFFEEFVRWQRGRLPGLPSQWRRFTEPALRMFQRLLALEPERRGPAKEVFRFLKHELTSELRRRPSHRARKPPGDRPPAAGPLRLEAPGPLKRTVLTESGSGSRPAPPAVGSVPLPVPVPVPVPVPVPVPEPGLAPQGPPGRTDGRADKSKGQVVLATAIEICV
Put plainly: Ambit KinomeScan screening. In kind it is binding. To be noted: CAL-130 10 μM. How it is done:
as §1

The subject of another series is Ca2+ flux in thymocytes. Put plainly: Calcium flux assay after TCR cross-linking. The class given is cell-based, mouse. To be noted: wild type thymocytes; to levels of Pik3cg−/−;pik3cd−/− counterparts. How it is done: Thymocytes or lymphocytes were preloaded with Fluo-4 AM (Molecular Probes, Eugene, OR) at 5 μg/mL for 30 minutes at 37° C., labeled with anti-CD4-APC conjugate (BD Biosciences) to permit gating on this T-cell subset during analysis, and finally washed and resuspended (2×10^6/mL) in DMEM and 10% FCS. After a baseline was established at quiescence, Ca^2+ flux was induced by the addition in tandem of anti-CD3e (hamster antimouse antibody; BD Biosciences) and the anti-hamster IgG polyclonal antibody (Jackson ImmunoResearch, West Grove, PA) for cross-linking. The resultant flux in Ca^2+ was measured for 5 minutes by flow cytometry, and total flux was established by the addition of ionomycin (0.5 μg/mL). Drug inhibition of Ca^2+ flux was measured after 30 minute pre-incubation with CAL-130 at room temperature of dye loaded cells. Percentage overall change in Ca^2+ flux is reported as (Ca^2+ fluxpeak−Ca^2+ fluxbaseline/Ca^2+fluxionomycin−Ca^2+fluxbaseline)×100.
Background: A change in cytosolic calcium serves as a functional read-out for many receptors and channels.

A short description of another series: Plasma levels of CAL-130. To be noted: 10 mg kg−1 orally, at the end of 8 hours. In kind it is in vivo, mouse. As for the experimental part:
For CAL-130 level determinations, animals received a single oral dose (10 mg kg^−1 or 20 mg kg^−1) of inhibitor. Plasma was collected at 0, 2, 4, 8, and 12 hours and subjected to high-performance liquid chromatography-MS/MS (sensitivity 1 ng/mL). The concentration of CAL-130 in plasma was determined using a standard curve (analyte peak area versus concentration) generated with calibration standard pools. Values represent the mean (±SD) for four animals per group.

Series [1] can be described thus: Plasma glucose and insulin levels. In kind it is in vivo, mouse. To be noted: single oral dose 10 mg kg−1. As for the experimental part:
Plasma glucose and insulin levels were determined following a single oral dose of CAL-130 (10 mg kg^−1). Blood was collected into K2EDTA tubes by cardiac puncture at baseline and 0, 2, 4, and 8 hours post-dose, and plasma samples frozen at −80° C. until analysis. The insulin and glucose levels were determined by using an Ultra Sensitive Mouse Insulin ELISA Kit (Crystall Chem Inc.) or WaveSense Presto Blood Glucose Monitoring System (Agamatrix Inc., Boston, MA), respectively.

The subject of the next series is platelets. Put plainly: ADP-induced platelet aggregation. The class given is cell-based, mouse. Conditions: platelets from p110γ/δ double knockout mice 2 hours post administration of CAL-130 (10 mg kg−1). As for the experimental part: Blood was obtained from anesthetized p110δ/γ double knockout mice via cardiac puncture. Platelets were purified from PRP by centrifugation and resuspended to a final concentration of […] in buffer (145 mM NaCl, 10 mM Hepes, 0.5 mM Na2HPO4, 5 mM KCl, 2 mM MgCl2, 1 mM CaCl2, 0.1% glucose, pH 7.4). CAL-130 (1 μM, 2.5 μM, or 5 μM final concentration) or DMSO was added to platelet suspensions 5 minutes prior to inducing aggregation with ADP (25 μM). Mouse fibrinogen (final concentration 200 μg/ml) was also added to the platelet suspensions just prior to activation as previously described (Magallon et al., 2011). Aggregation was assessed using a Chronolog Lumi-Aggregometer (model 540 VS, Chronolog, Havertown, PA). In some experiments, blood was collected 2 hours after administering a single dose of CAL-130 (10 mg kg^−1) or vehicle control and ADP-induced aggregation evaluated.

The subject of another series is CCRF-CEM xenografts. Put plainly: Subcutaneous CCRF-CEM (CEM-luc) xenograft, bioluminescence. Conditions: 10 mg kg−1 every 8 hours for 4 days. The class given is in vivo, mouse. As for the experimental part:
For subcutaneous xenograft experiments, luminescent CCRF-CEM (CEM-luc) cells were generated by lentiviral infection with FUW-luc and selection with neomycin. Luciferase expression was verified with the Dual-Luciferase Reporter Assay kit (Promega Corp., Madison, WI). […] After 1 week, mice were treated by oral gavage with vehicle (0.5% methyl cellulose, 0.1% Tween-80), or CAL-130 (10 mg kg^−1) (Gilead Sciences, Foster City, CA) every 8 hours daily for 4 days and then tumors imaged as follows: mice anesthetized by isoflurane inhalation were injected intraperitoneally with D-luciferin (50 mg kg^−1, Xenogen, Calipers Life Sciences, Hopkinton, MA). Photonic emission was imaged with the In Vivo Imaging System (IVIS, Xenogen). Tumor bioluminescence was quantified by integrating the photonic flux (photons per second) through a region encircling each tumor using the LIVING IMAGES software package (Xenogen).
In the former, luciferase expressing CCRF-CEM cells were injected into the flanks of immunodeficient mice and allowed to grow for 1 week before administering vehicle control or inhibitor (10 mg kg^−1 every 8 hours) for a total of 4 days. In the latter, treatment commenced 3 days post-injection of tumor cells for a total of 7 days. […]

The subject of another series is CCRF-CEM xenograft. Put plainly: Systemic (intravenous) CCRF-CEM xenograft, survival. In kind it is in vivo, mouse. Conditions: treatment from 3 days post-injection for 7 days. How it is done: After 3 days, mice were segregated into two treatment groups that received either CAL-130 or vehicle by oral gavage as described above for 7 days. Mice in both groups were then followed until moribund (and euthanized).
In the former, luciferase expressing CCRF-CEM cells were injected into the flanks of immunodeficient mice and allowed to grow for 1 week before administering vehicle control or inhibitor (10 mg kg^−1 every 8 hours) for a total of 4 days. In the latter, treatment commenced 3 days post-injection of tumor cells for a total of 7 days. […] This translated into an increase in median survival time for treated animals with systemic disease of 35 days versus 23 days for mice that received vehicle control alone (FIG. 19D).

T1 sequence (Q99683 whole entry): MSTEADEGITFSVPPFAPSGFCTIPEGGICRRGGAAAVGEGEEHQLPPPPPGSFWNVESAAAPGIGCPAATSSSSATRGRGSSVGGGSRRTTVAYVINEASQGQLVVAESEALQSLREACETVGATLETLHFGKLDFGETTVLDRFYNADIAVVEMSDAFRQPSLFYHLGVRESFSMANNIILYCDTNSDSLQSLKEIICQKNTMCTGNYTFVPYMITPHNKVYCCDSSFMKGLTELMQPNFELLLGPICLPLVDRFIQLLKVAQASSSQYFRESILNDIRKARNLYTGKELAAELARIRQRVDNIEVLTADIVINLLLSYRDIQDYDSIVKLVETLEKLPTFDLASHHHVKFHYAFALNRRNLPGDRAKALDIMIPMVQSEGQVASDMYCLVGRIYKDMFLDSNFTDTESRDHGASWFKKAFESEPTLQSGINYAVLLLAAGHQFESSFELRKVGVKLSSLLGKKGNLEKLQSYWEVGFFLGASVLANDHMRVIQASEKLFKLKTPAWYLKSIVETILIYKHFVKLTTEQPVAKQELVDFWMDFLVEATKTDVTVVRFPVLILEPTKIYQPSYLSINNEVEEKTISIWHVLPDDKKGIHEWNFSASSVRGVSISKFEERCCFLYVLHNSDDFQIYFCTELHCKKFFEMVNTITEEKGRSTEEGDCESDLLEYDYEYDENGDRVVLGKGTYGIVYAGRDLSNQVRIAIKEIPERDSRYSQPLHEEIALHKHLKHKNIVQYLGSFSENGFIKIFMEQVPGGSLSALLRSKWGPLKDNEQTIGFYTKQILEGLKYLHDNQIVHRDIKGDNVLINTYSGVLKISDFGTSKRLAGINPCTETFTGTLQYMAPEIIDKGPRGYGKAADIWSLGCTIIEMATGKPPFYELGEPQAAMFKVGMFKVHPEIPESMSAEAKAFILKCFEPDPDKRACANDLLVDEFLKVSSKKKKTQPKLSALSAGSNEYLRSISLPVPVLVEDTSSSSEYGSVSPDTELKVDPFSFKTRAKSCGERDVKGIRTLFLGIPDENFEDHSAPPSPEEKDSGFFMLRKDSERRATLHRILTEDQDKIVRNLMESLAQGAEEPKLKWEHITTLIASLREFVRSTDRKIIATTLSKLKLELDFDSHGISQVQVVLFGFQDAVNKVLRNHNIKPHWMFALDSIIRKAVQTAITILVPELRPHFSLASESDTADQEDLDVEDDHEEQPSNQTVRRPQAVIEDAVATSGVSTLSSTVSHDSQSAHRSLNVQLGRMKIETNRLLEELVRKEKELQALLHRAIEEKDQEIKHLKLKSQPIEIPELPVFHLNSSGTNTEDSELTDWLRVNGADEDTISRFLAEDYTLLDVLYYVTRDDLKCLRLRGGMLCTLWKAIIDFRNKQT

Take `Cc1ccccc1-n1c(C(C)Nc2nc(N)nc3nc[nH]c23)nc2cccc(C)c2c1=O` (stereo not shown) [CAL-130]: the “Percent of Control Binding” value on ASK1, on AXL, at FGFR4, at HIPK4, at PAK4 and on SBK1 was 100% in each case. Further, the “calcium flux in response to TCR cross-linking” value in the series on Ca2+ flux in thymocytes is recorded as “attenuated”. In “Plasma levels of CAL-130”, this molecule yielded a plasma concentration of 330 ± 180 nM. The plasma glucose levels entry in [1] is on record as “did not affect”. In addition, in series [1], the plasma insulin levels result is “did not affect”. The ADP-mediated platelet aggregation result with platelets is given as “no obvious defect”. In the series with CCRF-CEM xenografts, the “difference in luminescence, treated versus vehicle control” value is 5 fold. In the series with CCRF-CEM xenograft, this molecule returned a median survival time of 35 days.
